Results from US8124793B2, “Derivatives of ethylene methanedisulfonate as cancer chemotherapeutic agents” (priority 2007, dated 2012).

What was measured:
Assay type in all cases: cell-based
HL-60 (TB) = assay: NCI screen, growth of human tumor cells: Leukemia HL-60 (TB); details: HL-60 (TB) (Leukemia), 10^−4 molar
Protocol: (§1) In the NCI screening process, each compound was tested and described by a minimum of 60 data points. The test data include, but are not limited to the type of cancer, the molar concentration used in the screen, and the percent growth of the cancer. In some cases, NMR and elemental analysis were used for structural assignment.

SR = assay: NCI screen, growth of human tumor cells: Leukemia SR; details: SR (Leukemia), 10^−4 molar
Method in brief: (§2)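 Percent-growth read-out from the NCI cancer cell screen; data annotated by cancer type and molar concentration, ≥60 points per compound.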

HOP-92 = assay: NCI screen, growth of human tumor cells: Non-Small Cell Lung HOP-92; details: HOP-92 (Non-Small Cell Lung), 10^−4 molar
Method in brief: as §2

NCI-H460 = assay: NCI screen, growth of human tumor cells: Non-Small Cell Lung NCI-H460; details: NCI-H460 (Non-Small Cell Lung), 10^−4 molar
Method in brief: as §2

SW620 = assay: NCI screen, growth of human tumor cells: Colon Cancer SW620
Protocol: as §1

SF-268 = assay: NCI screen, growth of human tumor cells: CNS Cancer SF-268; details: SF-268 (CNS Cancer), 10^−4 molar
Method in brief: as §2

SF-295 = assay: NCI screen, growth of human tumor cells: CNS Cancer SF-295
Method in brief: as §2

SF-539 = assay: NCI screen, growth of human tumor cells: CNS Cancer SF-539; details: SF-539 (CNS Cancer), 10^−4 molar
Method in brief: as §2

SNB-75 = assay: NCI screen, growth of human tumor cells: CNS Cancer SNB-75; details: SNB-75 (CNS Cancer), 10^−4 molar
Method in brief: as §2

U-251 = assay: NCI screen, growth of human tumor cells: CNS Cancer U-251; details: U-251 (CNS Cancer), 10^−4 molar
Method in brief: as §2

LOXIMVI = assay: NCI screen, growth of human tumor cells: Melanoma LOXIMVI; details: for % Growth: LOXIMVI
Protocol: as §1

UACC-62 = assay: NCI screen, growth of human tumor cells: Melanoma UACC-62
Method in brief: as §2

786-0 = assay: NCI screen, growth of human tumor cells: Renal Cancer 786-0; details: 786-0 (Renal Cancer), 10^−4 molar
Method in brief: as §2

ACHN = assay: NCI screen, growth of human tumor cells: Renal Cancer ACHN; details: ACHN (Renal Cancer), 10^−4 molar
Method in brief: as §2

CAKI-1 = assay: NCI screen, growth of human tumor cells: Renal Cancer CAKI-1; details: CAKI-1 (Renal Cancer), 10^−4 molar
Method in brief: as §2

UO-31 = assay: NCI screen, growth of human tumor cells: Renal Cancer UO-31; details: UO-31 (Renal Cancer), 10^−4 molar
Method in brief: as §2

MCF 7 = assay: NCI screen, growth of human tumor cells: Breast Cancer MCF 7; details: MCF 7 (Breast Cancer), 10^−4 molar
Method in brief: as §2

MCF7/ADR-RES = assay: NCI screen, growth of human tumor cells: Breast Cancer MCF7/ADR-RES; details: MCF7/ADR-RES (Breast Cancer), 10^−4 molar
Method in brief: as §2

BT-549 = assay: NCI screen, growth of human tumor cells: Breast Cancer BT-549; details: BT-549 (Breast Cancer), 10^−4 molar
Method in brief: as §2

T-47D = assay: NCI screen, growth of human tumor cells: Breast Cancer T-47D; details: T-47D (Breast Cancer), 10^−4 molar
Protocol: as §1

human cancer cells = assay: NCI screen summary over the cancers tested (negative growth of human cancer cells); details: 10^−4 M conc.; cancers with negative growth / cancers tested
Protocol: as §1
The derivatives in the tables are grouped using the same category as in the tables 1-6.

KD488 = assay: NCI screen, growth of human tumor cells: Lymphoma KD488
SU-DAL-7 = assay: NCI screen, growth of human tumor cells: Lymphoma SU-DAL-7; details: SU-DAL-7, 10^−4 molar

SMILES: C[Si](C)(OCCS(=O)(=O)O)C1S(=O)(=O)OCCOS1(=O)=O [NSC 674991]
- percent of growth of human tumor cells (HL-60 (TB)): 15%
- percent of growth of human tumor cells (SR): 20%
- percent of growth of human tumor cells (HOP-92): 22%
- percent of growth of human tumor cells (NCI-H460): 22%
- % Growth (SW620; SW620, 10^−4 molar): −49%
- % Growth (SW620; SW620, 10^−5 molar): 34%
- % Growth (SW620; SW620, 10^−6 molar): 25%
- percent of growth of human tumor cells (SF-268): 11%
- % Growth (SF-295; SF-295, 10^−4 molar): −31%
- % Growth (SF-295; SF-295, 10^−5 molar): 31%
- percent of growth of human tumor cells (SF-539): 4%
- percent of growth of human tumor cells (SNB-75): −24%
- percent of growth of human tumor cells (U-251): 9%
- percent of growth of human tumor cells (LOXIMVI; LOXIMVI (Melanoma), 10^−4 molar): 10%
- % Growth (LOXIMVI; 10^−4 molar): −90%
- % Growth (LOXIMVI; 10^−5 molar): 63%
- % Growth (UACC-62; UACC-62, 10^−4 molar): 5%
- % Growth (UACC-62; UACC-62, 10^−5 molar): 57%
- percent of growth of human tumor cells (786-0): 16%
- percent of growth of human tumor cells (ACHN): −10%
- percent of growth of human tumor cells (CAKI-1): −8%
- percent of growth of human tumor cells (UO-31): 29%
- percent of growth of human tumor cells (MCF 7): 22%
- percent of growth of human tumor cells (MCF7/ADR-RES): 20%
- percent of growth of human tumor cells (BT-549): 11%
- percent of growth of human tumor cells (T-47D): 18%
- Percentage of cancers showing negative growth cancers tested (human cancer cells): 10^−4 M conc. = 6/21 = 28.6%

SMILES: O=C(c1cccc2ccccc12)C1S(=O)(=O)OCCOS1(=O)=O [NSC 679047, ethylene 1-naphthoylmethanedisulfonate]
- % Growth (SF-295; SF-295, 10^−4 molar): −53%
- % Growth (SF-295; SF-295, 10^−5 molar): −50%
- % Growth (SF-295; SF-295, 10^−6 molar): −54%
- % Growth (SF-295; SF-295, 10^−7 molar): −44%
- % Growth (SF-295; SF-295, 10^−8 molar): 70%
- Percentage of cancers showing negative growth cancers tested (human cancer cells): 10^−4 M conc. = 1/3 = 33%
- % Growth (KD488; KD488, 10^−4 molar): 29%
- % Growth (KD488; KD488, 10^−5 molar): 45%
- % Growth (KD488; KD488, 10^−6 molar): 56%
- % Growth (KD488; KD488, 10^−7 molar): 71%
- % Growth (KD488; KD488, 10^−8 molar): 78%
- % Growth (SU-DAL-7): 42%
